Earlier results in patent US7419996B2, “Parenteral and oral formulations of benzimidazoles” (The University of Houston, priority 2003, dated 2008).
Read-outs that look alike come from different tables or passages of the source.

Tested on: rodents

What does the source list for `C[S+](C)[O-]` [DMSO, dimethylsulfoxide]?
LD50 (intravenously): 3.1 gm/kg; LD50 (orally): 7.92 gm/kg
